Measurements published in US20230023559A1, “ARYLMETHYLENE HETEROCYCLIC COMPOUNDS AS KV1.3 POTASSIUM SHAKER CHANNEL BLOCKERS” (D. E. Shaw Research, LLC, priority 2019, published 2023).
pIC50: −log10 of the molar value.

Target: T1, Kv1.3 potassium channel (Homo sapiens, UniProt P22001)
T1 construct: expressed in transfected cells
Assay: Kv1.3 potassium channel blocker activity, automated whole-cell patch clamp (Patchliner)
Assay type: cell-based
Conditions: CHO-K1 cells stably expressing Kv1.3; whole cell current inhibition; read-out: Kv1.3_IC50
Experimental: The assay described below is used to evaluate the disclosed compound's activities as Kv1.3 potassium channel blockers.
CHO-K1 cells stably expressing Kv1.3 were grown in DMEM containing 10% heat-inactivated FBS, 1 mM Sodium Pyruvate, 2 mM L-Glutamine and G418 (500 μg/ml).
All compounds were dissolved in DMSO at 30 mM.
The currents were evoked by applying 100 ms depolarizing pulses from −90 mV (holding potential) to +40 mV were applied with 0.1 Hz frequency. […] 10 second breaks were used between pulse trains (see Table A below).
Data were sampled at 10 kHz without filtering. Passive leak currents were subtracted online using a P/4 procedure (HEKA Elektronik Dr. Schulze GmbH). […] Total compound incubation time before the next pulse train was not longer than 10 seconds. Peak current inhibition was observed during compound equilibration.

T1 sequence (P22001 whole entry): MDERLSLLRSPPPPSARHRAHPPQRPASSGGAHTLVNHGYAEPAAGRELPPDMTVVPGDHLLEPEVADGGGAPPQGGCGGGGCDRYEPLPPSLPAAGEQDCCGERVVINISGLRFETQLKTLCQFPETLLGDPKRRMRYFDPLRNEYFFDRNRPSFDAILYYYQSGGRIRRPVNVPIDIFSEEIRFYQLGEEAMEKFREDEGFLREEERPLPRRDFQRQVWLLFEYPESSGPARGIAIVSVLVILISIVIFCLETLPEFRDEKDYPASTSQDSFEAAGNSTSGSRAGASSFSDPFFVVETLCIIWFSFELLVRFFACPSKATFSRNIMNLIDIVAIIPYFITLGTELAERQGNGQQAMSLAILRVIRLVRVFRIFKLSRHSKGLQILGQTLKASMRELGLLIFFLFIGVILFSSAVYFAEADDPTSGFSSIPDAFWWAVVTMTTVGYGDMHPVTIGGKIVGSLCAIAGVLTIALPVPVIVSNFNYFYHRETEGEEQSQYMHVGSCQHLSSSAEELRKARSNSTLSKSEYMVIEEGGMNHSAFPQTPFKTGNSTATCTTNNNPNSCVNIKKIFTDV

| SMILES | pIC50 |
| --- | --- |
| COCCN1CCC(C(N)c2cc(Cl)c(Cl)cc2O)CC1 (stereo not drawn) [Compound 64, 2-(amino(1-(2-methoxyethyl)piperidin-4-yl)methyl)-4,5-dichlorophenol] | > 5.00 |
| NC(c1cc(Cl)c(Cl)cc1O)C1CCN(C(=O)C(F)(F)F)CC1 (stereo not drawn) [Compound 77, 1-[4-[amino(4,5-dichloro-2-hydroxyphenyl)methyl]piperidin-1-yl]-2,2,2-trifluoroethan-1-one Trifluoroacetic Acid] | > 5.00 |
| NC(=O)CCN1CCC(C(N)c2cc(Cl)c(Cl)cc2O)CC1 (stereo not drawn) [Compound 78] | > 5.00 |
| NC(c1c(O)ccc(Cl)c1Cl)C1CCNCC1 (stereo not drawn) [Compound 86, 2-[amino(piperidin-4-yl)methyl]-3,4-dichlorophenol Bis(Trifluoroacetic Acid)] | > 4.52 |
| CC(C)(N)C(=O)N1CCC([C@@H](N)c2cc(Cl)c(Cl)cc2O)CC1 [Compound 90, (R)-2-amino-1-(4-(amino(4,5-dichloro-2-hydroxyphenyl)methyl)piperidin-1-yl)-2-methylpropan-1-one trifluoroacetic acid] | > 6.30 |
| CC[C@H](N)C(=O)N1CCC([C@@H](N)c2cc(Cl)c(Cl)cc2O)CC1 [Compound 91, (S)-2-amino-1-(4-((R)-amino(4,5-dichloro-2-hydroxyphenyl)methyl)piperidin-1-yl)butan-1-one trifluoroacetic acid] | > 6.30 |
| CC(=O)NC(c1cc(Cl)c(Cl)cc1O)C1CCN(C(=O)[C@@H]2CCNC2)CC1 (stereo partly drawn) [Compound 108, N-((4,5-dichloro-2-hydroxyphenyl)(1-((R)-pyrrolidine-3-carbonyl)piperidin-4-yl)methyl)acetamide Trifluoroacetic Acid] | > 5.00 |
| N[C@@H](c1cc(Cl)c(Cl)cc1O)C1CCN(C(=O)C2CNCC2(F)F)CC1 (stereo partly drawn) [Compound 113, (4-((R)-amino(4,5-dichloro-2-hydroxyphenyl)methyl)piperidin-1-yl)(4,4-difluoropyrrolidin-3-yl)methanone] | > 5.00 |
| O=C([C@H]1CCNC1)N1CCCC(C(O)c2cc(Cl)c(Cl)cc2O)CC1 (stereo partly drawn) [Compound 128, 4,5-dichloro-2-[hydroxy([1-[(3S)-pyrrolidine-3-carbonyl]azepan-4-yl])methyl]phenol] | > 5.00 |
| CNC(c1cc(Cl)c(Cl)cc1O)C1CCN(C(=O)C(O)CO)CC1 (stereo not drawn) [Compound 184, 1-[4-[(4,5-dichloro-2-hydroxyphenyl)(methylamino)methyl]piperidin-1-yl]-2,3-dihydroxypropan-1-one Trifluoroacetic Acid] | > 5.00 |
| CN(C)C(c1cc(Cl)c(Cl)cc1O)C1CCN(C(=O)[C@H](O)CO)CC1 (stereo partly drawn) [Compound 193, (2R)-1-[4-[(4,5-dichloro-2-hydroxyphenyl)(dimethylamino)methyl]piperidin-1-yl]-2,3-dihydroxypropan-1-one Trifluoroacetic Acid] | > 4.52 |
| N[C@@H](c1cc(Cl)c(C(F)F)cc1O)C1CCN(C(=O)[C@H](O)CO)CC1 [Compound 227, (2R)-1-[4-[(R)-amino[5-chloro-4-(difluoromethyl)-2-hydroxyphenyl]methyl]piperidin-1-yl]-2,3-dihydroxypropan-1-one Trifluoroacetic Acid] | > 6.30 |
| CO[C@H](CO)C(=O)N1CCC([C@@H](N)c2cc(Cl)c(C)cc2O)CC1 [Compound 250, (2R)-1-[4-[(R)-amino(5-chloro-2-hydroxy-4-methylphenyl)methyl]piperidin-1-yl]-3-hydroxy-2-methoxypropan-1-one trifluoroacetic acid] | > 6.30 |
| N[C@@H](c1cc(Cl)c(Cl)cc1O)C1CCN(C(=O)c2c[nH]c(=O)[nH]c2=O)CC1 [Compound 252, 5-[4-[(R)-amino(4,5-dichloro-2-hydroxyphenyl)methyl]piperidine-1-carbonyl]-1,3-dihydropyrimidine-2,4-dione formic acid] | > 6.30 |
| N[C@@H](c1cc(Cl)c(Cl)cc1O)C1CCN(C(=O)c2c[nH]c(=O)[nH]2)CC1 [Compound 254, 4-[4-[(R)-amino(4,5-dichloro-2-hydroxyphenyl)methyl]piperidine-1-carbonyl]-1,3-dihydroimidazol-2-one trifluoro-acetic acid] | > 6.30 |

Other lines, results leading:

| pIC50 | SMILES |
| --- | --- |
| > 5.00 | Cc1cc(CN2CCC(C(N)c3cc(Cl)c(Cl)cc3O)CC2)no1 (stereo not drawn) [Compound 58, 2-[amino([1-[(5-methyl-1,2-oxazol-3-yl)methyl]piperidin-4-yl])methyl]-4,5-dichlorophenol Trifluoroacetic Acid] |
| > 5.00 | NC(c1cc(Cl)c(Cl)cc1O)C1CCN(CC(F)F)CC1 (stereo not drawn) [Compound 62, 2-(amino(1-(2,2-difluoroethyl)piperidin-4-yl)methyl)-4,5-dichlorophenol Trifluoroacetic Acid] |
| > 5.00 | NC(c1cc(Cl)c(Cl)cc1O)C1CCN(C2CCNC2=O)CC1 (stereo not drawn) [Compound 65, 3-(4-(amino(4,5-dichloro-2-hydroxyphenyl)methyl)piperidin-1-yl)pyrrolidin-2-one Trifluoroacetic Acid] |
| > 5.00 | CS(=O)(=O)N1CCC(C(N)c2cc(Cl)c(Cl)cc2O)CC1 (stereo not drawn) [Compound 71, 2-[amino(1-methanesulfonylpiperidin-4-yl)methyl]-4,5-dichlorophenol Trifluoroacetic Acid] |
| > 5.00 | N[C@H](c1cc(Cl)c(Cl)cc1O)C1CCN(C(=O)[C@H]2CCNC2)CC1 [Compound 79, (4-((S)-amino(4,5-dichloro-2-hydroxyphenyl)methyl)piperidin-1-yl)((S)-pyrrolidin-3-yl)methanone] |
| > 6.30 | CC[C@@H](N)C(=O)N1CCC([C@@H](N)c2cc(Cl)c(Cl)cc2O)CC1 [Compound 88, (R)-2-amino-1-(4-((R)-amino(4,5-dichloro-2-hydroxyphenyl)methyl)piperidin-1-yl)butan-1-one trifluoroacetic acid] |
| > 5.00 | CC(C)C[C@H](N)C(=O)N1CCC([C@@H](N)c2cc(Cl)c(Cl)cc2O)CC1 [Compound 93, (S)-2-amino-1-(4-((R)-amino (4,5-dichloro-2-hydroxyphenyl)methyl)piperidin-1-yl)-4-methylpentan-1-one] |
| > 6.30 | CC(C)C[C@@H](N)C(=O)N1CCC([C@@H](N)c2cc(Cl)c(Cl)cc2O)CC1 [Compound 94, (R)-2-amino-1-(4-((R)-amino(4,5-dichloro-2-hydroxyphenyl)methyl)piperidin-1-yl)-4-methylpentan-1-one trifluoroacetic acid] |
| > 5.00 | CCNC(c1cc(Cl)c(Cl)cc1O)C1CCN(C(=O)C(O)CO)CC1 (stereo not drawn) [Compound 182, 1-[4-[(4,5-dichloro-2-hydroxyphenyl)(ethylamino)methyl]piperidin-1-yl]-2,3-dihydroxypropan-1-one Trifluoroacetic Acid] |
| > 5.00 | N[C@@H](c1c(O)ccc(Cl)c1Cl)C1CCN(C(=O)[C@H](O)CO)CC1 [Compound 187, (2R)-1-[4-[(R)-amino(2,3-dichloro-6-hydroxyphenyl)methyl]piperidin-1-yl]-2,3-dihydroxypropan-1-one Trifluoroacetic Acid] |
| > 4.52 | CCNC(c1cc(Cl)c(Cl)cc1O)C1CCN(C(=O)[C@H](O)CO)CC1 (stereo partly drawn) [Compound 202, (2R)-1-[4-[(4,5-dichloro-2-hydroxyphenyl)(ethylamino)methyl]piperidin-1-yl]-2,3-dihydroxypropan-1-one Trifluoroacetic Acid] |
| > 5.00 | NC(c1cc(Cl)c(Cl)cc1O)[C@@H]1C[C@@H]2CN(C(=O)[C@H](O)CO)C[C@@H]2C1 (stereo partly drawn) [Compound 225, (2R)-1-((3aR,5R,6aS)-5-(amino(4,5-dichloro-2-hydroxyphenyl)methyl)hexahydrocyclopenta[c]pyrrol-2 (1H)-yl)-2,3-dihydroxypropan-1-one] |
| > 5.00 | N[C@@H](c1cc(Cl)c(Cl)cc1O)C1CCN(C(=O)[C@@H]2CNC(=O)CO2)CC1 [Compound 229, (6S)-6-[4-[(R)-amino(4,5-dichloro-2-hydroxyphenyl)methyl]piperidine-1-carbonyl]morpholin-3-one Trifluoroacetic Acid] |
| > 5.00 | Cc1[nH]c(=O)ccc1C(=O)N1CCC([C@@H](N)c2cc(Cl)c(Cl)cc2O)CC1 [Compound 230, (R)-5-(4-(amino(4,5-dichloro-2-hydroxyphenyl)methyl)piperidine-1-carbonyl)-6-methylpyridin-2(1H)-one] |
| > 6.30 | Cc1cc(O)c([C@H](N)C2CCN(C(=O)c3ccncc3)CC2)cc1Cl [Compound 234, 2-[(R)-amino[1-(pyridine-4-carbonyl)piperidin-4-yl]methyl]-4-chloro-5-methylphenol trifluoroacetic acid] |
| > 6.30 | COc1cc(C(=O)N2CCC([C@@H](N)c3cc(Cl)c(C)cc3O)CC2)c[nH]c1=O [Compound 251, 5-[4-[(R)-amino(5-chloro-2-hydroxy-4-methylphenyl)methyl]piperidine-1-carbonyl]-3-methoxy-1H-pyridin-2-one Trifluoroacetic Acid] |
| > 6.30 | N[C@@H](c1cc(Cl)c(Cl)cc1O)C1CCN(C(=O)c2ccc(=O)[nH]n2)CC1 [Compound 253, 6-[4-[(R)-amino(4,5-dichloro-2-hydroxyphenyl)methyl]piperidine-1-carbonyl]-2H-pyridazin-3-one trifluoroacetic acid] |
| > 6.30 | N[C@@H](c1cc(Cl)c(Cl)cc1O)C1CCN(C(=O)c2c[nH]c(=O)c(Cl)c2)CC1 [Compound 255, 5-[4-[(R)-amino(4,5-dichloro-2-hydroxyphenyl)methyl]piperidine-1-carbonyl]-3-chloro-1H-pyridin-2-one] |
